Measurements reported in ChEMBL document CHEMBL5634087, “Novel 5-aminopyrazoles endowed with anti-angiogenetic properties: Design, synthesis and biological evaluation” (Eur J Med Chem, 2023).
Active and inactive are the calls of the source. The calls are words filed in the database; no cut-off is given here.

Assays:
HeLa = test: Antiproliferative activity against human HeLa cells assessed as growth rate at 10 uM incubated for 48 hrs by MTT assay relative to control; assay type: functional; conditions: read-out: Activity
HUVEC = test: Antiangiogenic activity in confluent VEGF stimulated HUVEC cells assessed as inhibition of cell migration at 20 uM incubated for 24 to 48 hrs by Hoechst 33342 staining based wound healing assay; assay type: functional; conditions: Homo sapiens, time 24-48 hrs
[1] = biological target: Mitogen-activated protein kinase; ERK1/ERK2 (Homo sapiens) (UniProt P27361+P28482); test: Inhibition of ERK1/2 phosphorylation in serum starved bFGF stimulated HFF cells assessed as residual phosphorylated ERK1/2 level at 20 uM preincubated for 10 mins followed by bFGF addition and measured after 20 mins by Western blotting analysis relative to control; assay type: cell-based; conditions: time 30.0 min
MDA-MB-231 = test: Antiproliferative activity against human MDA-MB-231 cells assessed as growth rate at 10 uM incubated for 48 hrs by MTT assay relative to control; assay type: functional; conditions: read-out: Activity
HepG2 = test: Antiproliferative activity against human HepG2 cells assessed as growth rate at 10 uM incubated for 48 hrs by MTT assay relative to control; assay type: functional; conditions: read-out: Activity
SK-OV-3 = test: Antiproliferative activity against human SK-OV-3 cells assessed as growth rate at 10 uM incubated for 48 hrs by MTT assay relative to control; assay type: functional; conditions: read-out: Activity
HFF [2] = test: Antiangiogenic activity in confluent HFF cells assessed as relative migration rate at 20 uM incubated for 48 hrs by Hoechst 33342 staining based wound healing assay relative to control; assay type: functional, Homo sapiens
MCF7 = test: Antiproliferative activity against human MCF7 cells assessed as growth rate at 10 uM incubated for 48 hrs by MTT assay relative to control; assay type: functional; conditions: read-out: Activity
[3] = Cytotoxicity against human GM06114 cells assessed as growth rate at 10 uM incubated for 48 hrs by MTT assay relative to control; assay type: toxicity, cell-based; conditions: gm06114, 48 h
SK-MEL-28 = test: Antiproliferative activity against human SK-MEL-28 cells assessed as growth rate at 10 uM incubated for 48 hrs by MTT assay relative to control; assay type: functional; conditions: read-out: Activity
HFF [4] = test: Antiangiogenic activity in confluent HFF cells assessed as relative migration rate at 20 uM incubated for 24 hrs by Hoechst 33342 staining based wound healing assay relative to control; assay type: functional, Homo sapiens
[5] = biological target: RAC-alpha serine/threonine-protein kinase (Homo sapiens) (UniProt P31749); test: Inhibition of AKT phosphorylation in serum starved bFGF stimulated HFF cells assessed as residual activity at 20 uM preincubated for 10 mins followed by bFGF addition and measured after 20 mins by Western blotting analysis relative to control; assay type: cell-based; conditions: time 30.0 min
A549 = test: Antiproliferative activity against human A549 cells assessed as growth rate at 10 uM incubated for 48 hrs by MTT assay relative to control; assay type: functional; conditions: read-out: Activity
SK-BR-3 = test: Antiproliferative activity against human SK-BR-3 cells assessed as growth rate at 10 uM incubated for 48 hrs by MTT assay relative to control; assay type: functional; conditions: read-out: Activity
HFF [6] = test: Antiangiogenic activity in confluent HFF cells assessed as inhibition of cell migration at 20 uM incubated for 24 to 48 hrs by Hoechst 33342 staining based wound healing assay; assay type: functional; conditions: Homo sapiens, time 24-48 hrs
[7] = biological target: RAC-alpha serine/threonine-protein kinase (Homo sapiens) (UniProt P31749); test: Inhibition of AKT phosphorylation in serum starved bFGF stimulated HFF cells at 20 uM preincubated for 10 mins followed by bFGF addition and measured after 20 mins by Western blotting analysis; assay type: cell-based; conditions: time 30.0 min
[8] = biological target: RAC-alpha serine/threonine-protein kinase (Homo sapiens) (UniProt P31749); test: Inhibition of AKT phosphorylation in serum starved VEGF stimulated HUVEC cells at 20 uM preincubated for 10 mins followed by VEGF addition and measured after 20 mins by Western blotting analysis relative to control; assay type: cell-based; conditions: time 30.0 min

Chain of Mitogen-activated protein kinase; ERK1/ERK2 (Homo sapiens) (P27361 whole entry, looked up): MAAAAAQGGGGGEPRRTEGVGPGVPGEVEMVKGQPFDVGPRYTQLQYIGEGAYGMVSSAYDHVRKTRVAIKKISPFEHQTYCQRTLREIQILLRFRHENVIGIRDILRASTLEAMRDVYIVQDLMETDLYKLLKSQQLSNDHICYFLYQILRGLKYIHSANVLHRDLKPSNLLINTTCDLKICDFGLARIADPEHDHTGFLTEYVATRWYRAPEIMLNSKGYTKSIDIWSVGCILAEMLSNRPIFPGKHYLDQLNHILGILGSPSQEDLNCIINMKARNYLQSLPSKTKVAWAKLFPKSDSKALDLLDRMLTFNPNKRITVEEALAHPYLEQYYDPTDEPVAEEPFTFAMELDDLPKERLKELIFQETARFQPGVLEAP
Chain of Mitogen-activated protein kinase; ERK1/ERK2 (Homo sapiens) (P28482 whole entry, looked up): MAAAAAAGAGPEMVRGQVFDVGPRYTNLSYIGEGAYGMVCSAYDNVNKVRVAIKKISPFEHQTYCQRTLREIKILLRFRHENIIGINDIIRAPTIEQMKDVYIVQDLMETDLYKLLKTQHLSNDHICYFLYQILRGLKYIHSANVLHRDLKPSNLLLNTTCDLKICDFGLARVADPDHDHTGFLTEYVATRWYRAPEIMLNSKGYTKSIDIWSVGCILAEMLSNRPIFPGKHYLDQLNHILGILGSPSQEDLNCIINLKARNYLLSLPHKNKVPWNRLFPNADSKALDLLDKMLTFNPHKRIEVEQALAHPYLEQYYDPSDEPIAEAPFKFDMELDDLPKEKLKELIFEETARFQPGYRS
Chain of RAC-alpha serine/threonine-protein kinase (Homo sapiens) (P31749 whole entry): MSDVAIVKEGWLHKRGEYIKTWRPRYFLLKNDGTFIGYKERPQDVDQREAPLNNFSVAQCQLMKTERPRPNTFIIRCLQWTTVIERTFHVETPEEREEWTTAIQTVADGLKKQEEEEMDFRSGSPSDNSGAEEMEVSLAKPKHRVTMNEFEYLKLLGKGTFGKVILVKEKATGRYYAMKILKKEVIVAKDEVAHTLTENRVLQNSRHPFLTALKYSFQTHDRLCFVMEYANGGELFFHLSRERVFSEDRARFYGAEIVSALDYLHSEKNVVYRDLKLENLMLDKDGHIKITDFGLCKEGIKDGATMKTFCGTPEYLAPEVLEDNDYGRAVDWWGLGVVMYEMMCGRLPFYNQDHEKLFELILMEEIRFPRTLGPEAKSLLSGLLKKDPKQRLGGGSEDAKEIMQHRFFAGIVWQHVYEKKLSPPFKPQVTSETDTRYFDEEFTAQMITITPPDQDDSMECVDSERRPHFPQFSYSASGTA

SMILES	growth at 10 µM (HeLa) [%]	Activity (HUVEC)	Activity [1] [%]	growth at 10 µM (MDA-MB-231) [%]	growth at 10 µM (HepG2) [%]	growth at 10 µM (SK-OV-3) [%]	Activity (HFF [2]) [%]	growth at 10 µM (MCF7) [%]	Activity [3] [%]	growth at 10 µM (SK-MEL-28) [%]	Activity (HFF [4]) [%]	Activity [5] [%]	growth at 10 µM (A549) [%]	growth at 10 µM (SK-BR-3) [%]	Activity (HFF [6])	inhibition [7]	inhibition [8] [%]
CCOC(=O)c1c(Nc2ccccc2)nn(CC(O)c2ccccc2)c1N (stereo unspecified)	111	inactive	> 70	131	108	118	<55	150	96.04	114	<40	27.3	133	112	–	–	–
CCCCC(Cn1nc(Nc2ccc(C)cc2)c(C(=O)OCC)c1N)OC(=O)Nc1cccc(C(F)(F)F)c1 (stereo unspecified)	97	inactive	> 70	149	111	129	–	143	99.16	123	–	–	112	110	inactive	inactive	–
CCCCC(O)Cn1nc(Nc2ccccc2)c(C(=O)OCC)c1N (stereo unspecified)	115	inactive	> 70	131	102	118	–	147	97.13	117	–	–	130	109	Active	Active	43
CCCCC(O)Cn1nc(Nc2cccc(Cl)c2)c(C(=O)OCC)c1N (stereo unspecified)	117	inactive	> 70	140	108	128	–	137	92.22	106	–	–	136	108	Active	inactive	–
CCCCC(O)Cn1nc(Nc2ccc(C)cc2)c(C(=O)OCC)c1N (stereo unspecified)	109	inactive	50	134	99	112	14.34	155	106.98	122	–	–	120	105	Active	Active	43
CCOC(=O)c1c(Nc2ccc(Cl)cc2)nn(CC(O)c2ccccc2)c1N (stereo unspecified)	77.6	inactive	> 70	127	102	114	<55	125	113.67	131	<40	27.3	116	119	–	–	21
CCCCC(O)Cn1nc(Nc2ccccc2C)c(C(=O)OCC)c1N (stereo unspecified)	99	inactive	> 70	127	99.9	115	–	118	114.61	121	–	–	127	110	Active	Active	43
CCCCC(O)Cn1nc(Nc2cccc(C)c2)c(C(=O)OCC)c1N (stereo unspecified)	98.2	inactive	> 70	113	105	114	–	112	110.95	110	10.57	–	121	107	Active	Active	43
CCCCC(Cn1nc(Nc2ccccc2C)c(C(=O)OCC)c1N)OC(=O)Nc1cccc(C(F)(F)F)c1 (stereo unspecified)	58.5	inactive	> 70	117	106	103	–	110	110.05	141	–	–	81.7	124	inactive	inactive	29.7
CCOC(=O)c1c(Nc2ccc(C)cc2)nn(CC(OC(=O)Nc2cccc(C(F)(F)F)c2)c2ccccc2)c1N (stereo unspecified)	81.4	inactive	> 70	124	122	131	–	129	126.2	129	–	–	98.4	124	inactive	inactive	–
CCCCC(Cn1nc(Nc2ccccc2)c(C(=O)OCC)c1N)OC(=O)Nc1cccc(C(F)(F)F)c1 (stereo unspecified)	85.8	inactive	> 70	126	107	113	–	141	96.63	123	–	–	98.1	112	inactive	inactive	–
CCCCC(Cn1nc(Nc2ccc(Cl)cc2)c(C(=O)OCC)c1N)OC(=O)Nc1cccc(C(F)(F)F)c1 (stereo unspecified)	76.5	inactive	> 70	117	110	106	–	107	111.34	136	–	–	90.7	118	inactive	inactive	–
